PMC7948479, “Allostery in the nitric oxide dioxygenase mechanism of flavohemoglobin” (The Journal of Biological Chemistry, 2020)

Assays:
[1] = biological target: flavoHb heme (Fe^2+ / Fe^3+) (Escherichia coli, UniProt P24232)
Experimental: (§1) FAD and heme reduction were monitored by following the changes in flavoHb absorbance at 460 and 430 nm, respectively, with stopped-flow rapid mixing of 50 μM NADH and 10 μM flavoHb in N2-purged buffer ([4]). O2, NO, and CO association rate constants were determined by photolyzing 50 μM of the respective ferrous flavoHb species with a 300-ns pulse from a 577-nm laser and by spectrophotometrically following ligand reassociation in O2-, NO-, or CO-saturated buffer unless otherwise indicated ([4], [5]). […] Binding of NO was measured by the change of absorbance at 422 nm by applying a difference extinction coefficient of 0.040 μM^−1 cm^−1. O2 and CO dissociation rate constants were determined by stopped-flow rapid mixing with either CO or NO displacement ([4], [5]). The cuvette path length was 1.0 cm. All reactions were at 20 °C in filtered 100 mM sodium phosphate buffer, pH 7.0, containing 0.3 mM EDTA. Catalase (1000 U/ml) was included in all reactions containing O2 to scavenge H2O2 produced by the NADH oxidase activity of flavoHb and to regenerate O2.

[2] = biological target: flavoHb heme (Fe^2+ / Fe^3+) (Escherichia coli, UniProt P24232, Y29F); settings: PheB10 variant; 100 μM CO
Experimental: as §1

[3] = biological target: flavoHb heme (Fe^2+ / Fe^3+) (Escherichia coli, UniProt P24232, Q53H); settings: HisE7 variant; 100 μM CO
Experimental: as §1

[4] = TMAO reductase activity; format: biochemical; settings: CO 50 μM; AsnF7 variant
[5] = tested on: E. coli flavoHb-NOD; settings: read-out: Ki(CO); cited from earlier work
[6] = biological target: T1, flavoHb-NOD (Escherichia coli, UniProt P24232); assay: H2O2 sensitivity of the flavoHb-NOD; format: biochemical; settings: for protection of flavoHb-NOD against H2O2: resting state, 2 mM ascorbate or 10 µM miconazole
T1 construct: made in house; host or cells: E. coli hmp deletion strain AG103 carrying pUC19hmp
Experimental: Figure S5. H2O2 sensitivity of the flavoHb-NOD. NOD activity of flavoHb is rapidly lost upon exposure to H2O2 (panel A), and heme absorbance decreases with H2O2 exposure (panel B). The peroxidizable substrate ascorbate and the heme ligand miconazole (6) afford protection thus […]
(A) FlavoHb (0.1 µM heme) […]
was exposed to 0 (○), 50 (◼) or 200 µM H2O2 (●). Catalase (1000 U/mL) was added at various times to terminate reactions, and NOD activity was measured as described under Experimental Procedures. (B) Ferric flavoHb (5 µM heme) was exposed to 200 µM H2O2, and spectra were recorded at 2 min intervals (solid lines) or after a 10 min exposure in the presence of 2 mM ascorbate (dashed line) or 10 µM miconazole (dotted line). Reactions were at 37°C in 50 mM potassium phosphate buffer, pH 7.8, containing 0.1 mM EDTA. Error bars represent the S.D. of […]
(1 picture or pasted object on this page, not shown here)

[7] = biological target: E. coli flavoHb-NOD (Escherichia coli, UniProt P24232); format: biochemical; design: made in house; host or cells: E. coli hmp deletion strain AG103 carrying pUC19hmp
Description: We have formulated a steady-state velocity equation for the catalytic cycle with the activating trigger step (KT) (Equation 1).(1) v= Vmax(a) where a=([NO]^2[O2]^2/K1K2K3KTK4)/(1+([O2]/K1)+([O2]^2/K1K2)+(([O2]^2[NO])/K1K2K3)+(([O2]^2[NO])/K1K2K3KT)+(([O2]^2[NO]^2)/K1K2K3KTK4))
(2) v= Vmax(a)(b) where b=[NO]/(K3+([NO](1+((K2/[O2])(1+([NO]/Ki(NO)))))))
In addition, we have introduced a factor and equilibrium constant Ka(O2) for rare situations in which O2 causes an additional NO-independent activation of catalysis possibly by occupying unique binding sites or cavities (Equation 5).
(§2) NOD activity was measured amperometrically in 100 mM phosphate buffer, pH 7.0, containing 0.3 mM EDTA, 100 μg/ml bovine serum albumin (BSA) (Fraction V), 100 μM NADH, 0.1 μM FAD with NO, O2, and N2 mixtures added as described ([4], [72]). NADH oxidase activity was followed spectrophotometrically at 340 nm in a 1.0-ml cuvette containing 90 mM Tris chloride buffer, pH 8.2, 100 μM NADH, 200 μM O2, 0.1 μM FAD, 100 μg/ml BSA, and 0.3 mM EDTA and incubated at 37 °C. Cytochrome b5 reductase activity was assayed at 37 °C by following the rate of absorbance increase at 555 nm in a 1.0-ml reaction buffered with 90 mM Tris chloride, pH 8.2, and containing 10 μM ferric cytochrome b5, 200 μM O2, 20 μM NADH, 0.1 μM FAD, 100 μg/ml BSA, and 0.3 mM EDTA. TMAO reductase activity was assayed by following the absorbance decrease at 340 nm in a 1.0-ml anaerobic reaction containing 12 U Aspergillus niger glucose oxidase, 5 mM glucose, 260 U catalase, 400 mM TMAO, 100 μM NADH, 0.1 μM FAD, 100 μg/ml BSA, and 0.3 mM EDTA in 90 mM Tris chloride pH 8.2 and incubated at 37 °C. Ngb reductase activity was assayed by following the absorbance increase at 424 nm in a 1.0-ml anaerobic reaction containing 12 U glucose oxidase, 5 mM glucose, 260 U catalase, 5 μM Ngb, 50 μM NADH, 0.1 μM FAD, 100 μg/ml BSA, and 0.3 mM EDTA in 90 mM Tris chloride buffer, pH 8.2, and incubated at 37 °C. Methyl viologen reductase activity was assayed by following the formation of the blue cation radical at 603 nm and by applying an extinction coefficient of 13,300 M^−1 cm^−1 in a 1.0-ml anaerobic reaction buffered with 10 mM potassium phosphate, pH 7.0, and containing 12 U glucose oxidase, 5 mM glucose, 260 U catalase, 100 μM NADH, 0.1 μM FAD, 100 μg/ml BSA, 0.3 mM EDTA, and 200 mM sodium chloride and incubated at 37 °C. NO reductase activity was assayed amperometrically at 37 °C in a 1.0-ml anaerobic reaction containing 2 μM NO, 100 μM NADH, 0.1 μM FAD, 12 U glucose oxidase, 5 mM glucose, 260 U catalase, 100 μg/ml BSA, and 0.3 mM EDTA buffered with 10 mM potassium phosphate pH 7.0. CO effects were tested at a final concentration of 50 μM as diluted from a 1 mM stock in water. All activities are reported relative to the heme content of flavoHb.
Rate constants were estimated from the model kinetic equation using Python programming with successive approximations to optimize fits with varying NO and O2 concentrations. Vmax, K1, K2, KT, and Kii(NO) values were treated as independent variables for a given flavoHb while allowing K3, K4, and Ki(NO) to vary over limited ranges with varying O2 concentration. Kii(NO) was estimated from NO inhibition at saturating O2 concentrations.

[8] = biological target: E. coli flavoHb-NOD (Escherichia coli, UniProt P24232, K84N); settings: 1000 U of catalase
Experimental: as §2

With `[C-]#[O+]` [CO, reference compound] the “inhibition of fast phase of O2 rebinding” value [1] was ~10%, the “inhibition of slow phase of O2 rebinding” value [1] was 86% and the “inhibition of O2 migration and binding in the slow phase” value [2] was ~50%. For the same molecule, the “inhibition of O2 migration and binding in the slow phase” value [3] was ~50%, the “inhibition of TMAO reduction” value [4] was ~90% and the Ki [5] was ~1000 nM.
With `OO` [H2O2] the “effect of H2O2 on flavoHb-NOD activity” value ([6]; 50 or 200 µM H2O2) was “sensitive”.
In the case of `O=O` [O2], the “inhibition by O2 with respect to NO” value [7] is reported as “no competitive inhibition” and the “selectivity for O2 over N2” value [7] is reported as “greater than 80 fold”.
For `O=C1O[C@H]([C@@H](O)CO)C(O)=C1O` [ascorbate], the “protection of flavoHb-NOD against H2O2” value [6] was “protect”.
With `Clc1ccc(COC(Cn2ccnc2)c2ccc(Cl)cc2Cl)c(Cl)c1` (stereo not shown) [miconazole] the “protection of flavoHb-NOD against H2O2” value [6] was “protect”.
With Catalase the “protection of AsnF7 NOD activity from inactivation” value [8] was “modest protection”.
In the case of nitric oxide [NO], the “inhibition of NOD activity by NO” value ([7]; 1:100 ratio of NO to O2, reversible, competitive with O2) is reported as “roughly 50%”.
